Patent US7163800B2, “Methods of screening compositions for G protein-coupled receptor desensitization inhibitory activity” (Molecular Devices Corporation, priority 2000, dated 2007)
Like-named read-outs stand apart in the source and are kept apart here.

Experiments:
[1] = target: human vasopressin V2 receptor (V2R) (Homo sapiens, UniProt P30518); assay: arrestin-GFP localization (Fgrains) assay in U20S-V2R/ArrGFP cells, arginine vasopressin stimulated; type: cell-based; settings: 100 nM arginine vasopressin
Method: The assay was carried out using two different “double stable” human osteosarcoma cell (U20S) lines. […] The other cell line (U20S-V2R/ArrGFP) stably expressed V2R and the same arrestin-GFP conjugate.
The two cell lines (U20S-β2AR/ArrGFP and U20S-V2R/ArrGFP) were separately plated at 7000 cells/well on 384 well glass bottom plates. Two plates of U20S-β2AR/ArrGFP cells were prepared and two plates of U20S-V2R/ArrGFP cells were prepared.
Growth media was replaced with serum free media (i.e., Eagle's minimum essential medium (EMEM) buffered with 10 mM HEPES (N-2-Hydroxyethylpiperazine-N′-2-ethanesulfonic acid)) 24 hours after plating of the cells.
Each test compound was solvated using 100% dimethyl sulfoxide (DMSO). Multiple solutions of each compound were prepared at varying concentrations for testing in separate wells of each plate. If needed, the solutions were sonicated and heated to increase solubility. After preparation of the compound solutions, they were shielded from light.
Each of the solutions of varying concentrations of the fifteen compounds was added to a well on each of the four plates. The β2AR RT and V2R RT plates were incubated for 30 minutes at room temperature and atmospheric CO2.
Agonist was then added to each well. […] The β2AR RT and V2R RT plates were incubated for 30 minutes at room temperature and atmospheric CO2.
Each assay was then terminated using 1% paraformaldehyde containing 1 μM DRAQ5 DNA probe to fix the cells. The cells were analyzed using a pre-production model (alpha unit) of the IN Cell Analyzer 3000 (Amersham Biosciences), which is a line scanning, confocal imaging system. The IN Cell Analyzer 3000 was used to quantitate the localization of the arrestin-GFP conjugate for the cells in each well using the Amersham Biosciences granularity analysis GRNO algorithm. This algorithm finds the nucleus of cells and then dilates out a specified distance in which fluorescent spots or “grains” of arrestin-GFP localization are identified based on size and fluorescent intensity. The average of the fluorescent intensity of the identified grains per cell in an acquired image (i.e., Fgrains) was determined for each well on the plates.
The graphs for each compound as well as for the propanolol control are illustrated in FIGS. 7–22.
The curve-fitting program allowed the minimum and maximum values as well as the slope and EC50 values to vary rather than fixing the values to specified or collected values.

[2] = target: HA-tagged human β2-adrenergic receptor (β2AR) (Homo sapiens, UniProt P07550); assay: arrestin-GFP localization (Fgrains) assay in U20S-β2AR/ArrGFP cells, isoproterenol stimulated
Method: Each of the fifteen compounds was separately screened for GPCR desensitization inhibitory activity against HA-tagged human β2-adrenergic receptor (β2AR) and against human vasopressin V2 receptor (V2R). In addition, the effects of temperature and carbon dioxide (CO2) were evaluated with respect to each compound.

[3] = test system: β2AR and V2R; settings: inhibitory activity shown for both β2AR and V2R
Description: Each of the fifteen compounds was separately screened for GPCR desensitization inhibitory activity against HA-tagged human β2-adrenergic receptor (β2AR) and against human vasopressin V2 receptor (V2R).
As indicated by the Fgrains values for the cells in the Basal and Stimulated control wells, the Fgrains value determined by the IN Cell Analyzer 3000 in this example was functionally a measure of the average extent of desensitization in the cells in each well.

[4] = V2R CO2 plate: 37° C., 5% CO2/95% O2
[5] = B2AR CO2 plate: 37° C., 5% CO2/95% O2, 100 nM isoproterenol
[6] = V2R RT plate: room temperature, atmospheric CO2
[7] = B2AR RT plate: room temperature, atmospheric CO2, 100 nM isoproterenol

Compound | EC50 [1, 4] [µM] | Max Rsp (change between fitted maximum and fitted minimum Fgrains) [1, 4] | Min (fitted minimum Fgrains) [1, 4] | pEC50 [1, 4] | slope of concentration-response curve [1, 4] | Max Rsp (change between fitted maximum and fitted minimum Fgrains) [2, 5] | Min (fitted minimum Fgrains) [2, 5] | slope of concentration-response curve [2, 5] | EC50 [1, 6] [µM] | Max Rsp (change between fitted maximum and fitted minimum Fgrains) [1, 6] | Min (fitted minimum Fgrains) [1, 6] | pEC50 [1, 6] | slope of concentration-response curve [1, 6] | EC50 [2, 5] [µM] | pEC50 [2, 5] | Max Rsp (change between fitted maximum and fitted minimum Fgrains) [2, 7] | Min (fitted minimum Fgrains) [2, 7] | pEC50 [2, 7] | slope of concentration-response curve [2, 7] | indication of non-receptor-specific GPCR desensitization inhibitory activity [3] | further results
O=C1NC(=O)C(c2c[nH]c3ccccc23)=C1c1c[nH]c2ccccc12 [Bisindolylmaleimide IV] | 69.2 | 277 | 292 | 4.2 | 6.5 | – | – | – | – | – | – | – | – | – | – | – | – | – | – | – | –
CCC(=O)n1nc2c(c1C(C)(C)C)C(=O)c1ccccc1-2 [3-tert-Butyl-2-propionyl-2H-indeno[1,2-c]pyrazol-4-one] | – | – | – | – | – | 129 | 307 | 3.2 | – | – | – | – | – | – | – | – | – | – | – | – | EC50 [2]: 46.9 µM
Cn1cc(C2=C(c3c4n(c5ccccc35)CCC(CN)C4)C(=O)NC2=O)c2ccccc21 (stereo not drawn) [RO-31-8425] | 13.9 | 532 | 60 | 4.9 | 1.0 | 203 | 233 | 2.1 | 6.9 | 342 | 241 | 5.2 | 1.5 | 8.8 | 5.1 | 359 | 60 | 4.6 | 1.3 | non-receptor-specific GPCR desensitization inhibitory activity | EC50 [2, 7]: 23.2 µM
NCCCn1cc(C2=C(c3c[nH]c4ccccc34)C(=O)NC2=O)c2ccccc21 [Bisindolylmaleimide III] | 6 | 298 | 291 | 5.2 | 1.9 | 194 | 243 | 1.8 | 19.3 | 361 | 225 | 4.7 | 0.9 | 11.1 | 5.0 | 232 | 212 | 4.7 | 1.2 | non-receptor-specific GPCR desensitization inhibitory activity | EC50 [2, 7]: 22.4 µM
Cl.NCCCn1cc(C2=C(c3c[nH]c4ccccc34)C(=O)NC2=O)c2ccccc21 [Bisindolylmaleimide III, Hydrochloride] | – | 455 | 129 | 4.6 | 1.4 | 998 | −568 | 1.1 | 51.2 | 690 | −118 | 4.3 | 1.2 | – | 3.6 | 171 | 237 | 4.5 | 3.5 | non-receptor-specific GPCR desensitization inhibitory activity | EC50 ([1]; V2R CO2 plate: 37° C., 5% CO2/95% O2, Hydrochloride): 27.2 µM; EC50 ([2]; B2AR CO2 plate: 37° C., 5% CO2/95% O2, 100 nM isoproterenol, Hydrochloride): 233 µM; EC50 ([2]; B2AR RT plate: room temperature, atmospheric CO2, 100 nM isoproterenol, Hydrochloride): 34.9 µM
C[n+]1cc2c3c(ccc2c2ccc4cc5c(cc4c21)OCO5)OCO3 [Sanguinarine Chloride (LOPAC), Sanguinarine Chloride] | – | 519 | 63 | – | 2.6 | 350 | 85 | 1.6 | – | 508 | 45 | – | 2.3 | – | – | 330 | 76 | – | 1.8 | non-receptor-specific GPCR desensitization inhibitory activity | EC50 ([2]; EC50, B2AR CO2 plate: 37° C., 5% CO2/95% O2, 100 nM isoproterenol): 3.3 µM; EC50 ([2]; EC50, B2AR RT plate: room temperature, atmospheric CO2, 100 nM isoproterenol): 2.8 µM

Second part, led by results:

EC50 [1, 4] [µM] | Max Rsp (change between fitted maximum and fitted minimum Fgrains) [1, 4] | Min (fitted minimum Fgrains) [1, 4] | pEC50 [1, 4] | slope of concentration-response curve [1, 4] | Max Rsp (change between fitted maximum and fitted minimum Fgrains) [2, 5] | Min (fitted minimum Fgrains) [2, 5] | slope of concentration-response curve [2, 5] | EC50 [1, 6] [µM] | Max Rsp (change between fitted maximum and fitted minimum Fgrains) [1, 6] | Min (fitted minimum Fgrains) [1, 6] | pEC50 [1, 6] | slope of concentration-response curve [1, 6] | EC50 [2, 5] [µM] | pEC50 [2, 5] | Max Rsp (change between fitted maximum and fitted minimum Fgrains) [2, 7] | Min (fitted minimum Fgrains) [2, 7] | pEC50 [2, 7] | slope of concentration-response curve [2, 7] | Compound | indication of non-receptor-specific GPCR desensitization inhibitory activity [3] | further results
29.2 | 420 | 159 | 4.5 | 1.2 | 502 | −70 | 1.7 | 35 | 576 | −7 | 4.5 | 1.1 | 62.1 | 4.2 | 924 | −508 | 4.1 | 1.7 | CN1CCCC1CCn1cc(C2=C(c3c[nH]c4ccccc34)C(=O)NC2=O)c2ccccc21 (stereo not drawn) [Bisindolylmaleimide II] | non-receptor-specific GPCR desensitization inhibitory activity | EC50 [2, 7]: 87.3 µM
24.6 | 499 | 94 | 4.6 | 0.8 | 270 | 170 | 2.4 | 18.3 | 696 | −118 | 4.7 | 1.2 | 12.7 | 4.9 | 210 | 213 | 5.0 | 4.4 | Bisindolylmaleimide VI | non-receptor-specific GPCR desensitization inhibitory activity | EC50 [2, 7]: 9 µM
9.3 | 336 | 250 | 5.0 | 2.4 | 278 | 167 | 2.3 | 36.6 | 717 | −130 | 4.4 | 1.1 | 21.2 | 4.7 | 281 | 148 | 4.6 | 2.2 | O=C1NC(=O)C(c2cn(CCCN3CCNCC3)c3ccccc23)=C1c1c[nH]c2ccccc12 [Bisindolylmaleimide VII] | non-receptor-specific GPCR desensitization inhibitory activity | EC50 [2, 7]: 24.9 µM
